Patent EP0839146B1, “PIPERAZINE DERIVATIVES AND THEIR USE AS 5-HT1A ANTAGONISTS” (AMERICAN HOME PRODUCTS CORPORATION, priority 1995, dated 1997)

Tests used:
α1 receptors = test: α1 binding affinity (procedure of Marrow et al)
Description: The compounds were tested for α1 binding affinity (column 3) by the procedure of A.L. Marrow et al, Mol. Pharmacol., 1986, 29, 321.

5-HT1A receptor [1] = biological target: T1, 5-HT1A receptor (Rattus norvegicus, UniProt P19327); test: 5-HT1A receptor antagonist activity: antagonism of the 8-OH-DPAT syndrome in rats after oral pretreatment; assay type: in vivo; parameters: from tissue; host or cells: whole animal (rat), in vivo
T1 sequence (P19327 1-422): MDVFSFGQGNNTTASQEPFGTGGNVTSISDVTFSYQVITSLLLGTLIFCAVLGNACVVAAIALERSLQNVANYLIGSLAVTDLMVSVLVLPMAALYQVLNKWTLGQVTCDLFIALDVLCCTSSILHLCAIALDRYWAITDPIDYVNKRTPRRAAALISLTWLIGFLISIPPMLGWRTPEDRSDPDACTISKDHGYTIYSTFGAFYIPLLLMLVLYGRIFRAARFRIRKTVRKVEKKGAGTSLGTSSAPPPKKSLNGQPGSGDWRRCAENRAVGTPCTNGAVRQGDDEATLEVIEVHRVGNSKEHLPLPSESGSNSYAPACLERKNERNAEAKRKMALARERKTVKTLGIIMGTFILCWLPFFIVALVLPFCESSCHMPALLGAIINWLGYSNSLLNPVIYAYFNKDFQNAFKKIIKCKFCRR
Description: 5-HT1A receptor antagonist activity (columns 5 and 6) is assessed by the ability of the selective 5-HT1A receptor agonist, 8-OH-DPAT, to induce 'the 8-OH-DPAT syndrome' in rats characterised by extended flat body posture, forepaw treading and hyperlocomotion. The 8-OH-DPAT syndrome is scored as present (definite syndrome response) or absent (equivocal or no syndrome response) during the period 0-5 min following intravenous (i.v.) administration of the test agonist via a lateral tail vein.
A range of doses, on a logarithmic scale and encompassing the expected ED50, were chosen for the test agonist following preliminary evaluation. […]
Test antagonists were administered orally (p.o.) 60 min, before i.v. administration of 8-OH-DPAT. ED50 values for 8-OH-DPAT were determined for the different pretreatment groups using the sequential up/down procedure as described above.
The response to the selective 5-HT1A receptor agonist, 8-OH-DPAT, is represented as an ED50 value for induction of the 8-OH-DPAT syndrome, which is determined using the sequential up/down analysis following intravenous administration. 5-HT1A antagonist activity is determined by the ability of the test compound to antagonise the response to 8-OH-DPAT, i.e. to increase the ED50 for induction of the 8-OH-DPAT syndrome compared with vehicle pretreatment. […]

5-HT1A receptor [2] = biological target: T1, 5-HT1A receptor; test: 5-HT1A binding affinity in rat hippocampal membrane homogenate (method of Alexander and Wood); parameters: in rat hippocampal membrane homogenate; from tissue; host or cells: rat hippocampus (membrane homogenate)
Description: The compounds were tested for 5-HT1A binding affinity (column 2) in rat hippocampal membrane homogenate by the method of B.S. Alexander and M.D. Wood, J. Pharm. Pharmacol., 1988, 40, 888-891.

C[C@H](CN(C(=O)C1CCCCC1)c1ccccn1)N1CCN(c2cccc3c2OCCO3)CC1 [Example A1]
IC50 (α1 receptors): 625 nM
5-HT1A-antagonist Ratio (ED50 antagonist @ 3mg/kg po)/ED50 vehicle (5-HT1A receptor [1]; ED50 of i.v. 8-OH-DPAT after test compound 3 mg/kg p.o. divided by ED50 after vehicle): 20
5-HT1A-antagonist activity MED (5-HT1A receptor [1]; antagonist p.o. 60 min before i.v. 8-OH-DPAT, lowest dose at which ED50 confidence limits of antagonist and vehicle groups do not overlap): 1 mg/kg po
Ratio 5HT1A/α1 (5-HT1A receptor [2]; binding selectivity, ratio of 5-HT1A binding to α1-binding): 145
IC50 (5-HT1A receptor [2]; rat hippocampal membrane homogenate): 4.3 nM
